Data as given in patent US20110178104A1, “Anti-Heparin Compounds” (POLYMEDIX INC., priority 2010, published 2011).
pEC50: −log10 of the molar value. ≈ marks a conversion by molar mass, not a printed value. Where “and” joins values, the source holds several entries; their conditions need not be identical. Equal values may be shown once. Read-outs that look alike come from different tables or passages of the source. Starred links: 1 amine or outer side, 2 acyl side, 3 side chain; linkers in the order of their positions; H or OH if unused. Non-standard residues stand in square brackets, D forms with d. Residues, ends and D or L forms follow the SMILES beside them. *: point of attachment. NH(3-CONH2-4-OMe-phenyl) = COc1ccc(N*)cc1C(N)=O; 3Abz(6-OMe) = COc1ccc(N[*:1])cc1C(=O)[*:2]; X1 = O=C(O)COc1ccc(N[*:1])cc1C(=O)[*:2]

Key:
[1] = tested on: isolated human erythrocytes; assay: cells; assay type: cell-based; conditions: Homo sapiens, Erythrocyte, 1 h, read-out: Hemolysis EC50
Method: Hemolysis assay: Cytotoxicity was also evaluated in a hemolysis assay using isolated human erythrocytes. Pooled whole human blood was centrifuged to separate the red blood cells (RBC). The isolated RBCs were rinsed and diluted in Tris-buffered saline (TBS buffer, pH 7.4) to obtain a 0.22% RBC stock suspension. Serial two-fold dilutions of test agent were assayed over a concentration range of 1000 to 0.48 μg/ml with shaking for 1 hour at 37° C. At the conclusion of the incubation time, samples were centrifuged and 30 μl of the supernatant was added to 100 μl H2O. OD405 measurements were read for hemoglobin concentration. The bee venom peptide melittin was used as a positive control. EC50 values were determined using a four parameter logistic equation: Y=Bottom+(Top-Bottom)/(1+10̂((LogEC50-X)*HillSlope)).

[2] = Cytotoxicity colorimetric assay, HepG2; assay type: cell-based, human; conditions: human, HepG2 cells, one hour in serum-free media
Method: (§1) This assay measures the bioreduction of a novel tetrazolium compound to a soluble formazan product by viable cells. HepG2 cells were seeded in 96 well plates at 3×10^4 cells/well in MEM medium with 10% fetal bovine serum (FBS) 24 hours prior to use. NIH/3T3 cells were seeded in 96 well plates at 2×10^4 cells/well in DMEM medium with 10% bovine calf serum (BCS) 24 hours prior to use. Cell monolayers were rinsed in serum-free media and incubated for one hour with test agent in serum-free media. After incubation, the media was replaced with serum supplemented media and live cells were measured using the Cell Titer 96 Aqueous […] Assay kit (Promega, Madison, Wis.). EC50 values were determined using a four parameter logistic equation: Y=Bottom+(Top-Bottom)/(1+10̂((LogEC50-X)*HillSlope)).

[3] = tested on: Unfractionated heparin; assay: aPTT clotting assay, UFH 0.4 U/mL in plasma (Example 10); assay type: biochemical; conditions: unfractionated heparin 0.4 U/mL in plasma; aPTT clotting
Method: aPTT clotting Assay: Unfractionated heparin was mixed with plasma at a final concentration of 0.4 U/mL (or concentration which increases aPTT time to between 120 and 300 seconds). […] The ACL Elite Hemostasis analyzer (Beckman Coulter™) was used to add aPTT reagent (HemosIL SynthASil) to supplemented plasma. Clotting was initiated by addition of CaCl2 and time to clot was recorded.

[4] = tested on: enoxaparin; assay: FXa amidolytic assay (Example 10), enoxaparin; conditions: read-out: Enox FXa EC50; enoxaparin 0.1 ug/ml; human antithrombin, bovine Factor Xa
Method: (§2) Two μl of test agent are added (range between 0.01 and 23 ug/ml) and incubated for 5 minutes at 23° C. Bovine Factor Xa was added to a final concentration of 0.636 nkat/mL and incubated for a further 10 minutes at 23° C.

[5] = tested on: tinzaparin; assay: FXa amidolytic assay (Example 10), tinzaparin; conditions: read-out: Tinzap FXa EC50; tinzaparin 0.1 ug/ml; human antithrombin, bovine Factor Xa
Method: as §2

[6] = tested on: fondaparinux; assay: FXa amidolytic assay (Example 10), fondaparinux; conditions: read-out: Fondap FXa EC50; fondaparinux 0.02 μg/mL; human antithrombin, bovine Factor Xa
Method: as §2

[7] = Cytotoxicity colorimetric assay, NIH/3T3; assay type: cell-based, mouse; conditions: mouse, NIH/3T3 cells, one hour in serum-free media
Method: as §1

[8] = tested on: UFH; assay: FXa amidolytic assay (Example 10), UFH; conditions: read-out: Heparin FXa uM EC50; UFH 0.03 units/mL; human antithrombin, bovine Factor Xa
Method: as §2

Structure (SMILES)	EC50 ([1]; human RBC, 1 hour at 37° C.)	EC50 at 1 h [2]	pEC50 [3]	pEC50 [4]	pEC50 [5]	pEC50 [6]	EC50 at 1 h [7]	EC50 [8]	EC50 [1]
COc1ccc(NC(=O)[C@@H](CCCNC(=N)N)NC(=O)c2cc(NC(=O)[C@@H](CCCNC(=N)N)NC(=O)c3cc(NC(=O)[C@@H](CCCNC(=N)N)NC(=O)c4cc(NC(C)=O)ccc4OC)ccc3OC)ccc2OC)cc1C(N)=O [Compound 229]	~500 µg/mL (≈ 445 µM)	> 1000 µg/mL	5.73 and 5.64	6.67 and 6.68	6.78 and 6.79	6.23 and 6.49	–	–	–
COc1ccc(NC(=O)[C@H](CCCCN)NC(=O)c2cc(NC(=O)[C@H](CCCCN)NC(=O)c3cc(NC(=O)[C@H](CCCCN)NC(=O)c4cc(NC(=O)[C@@H](N)CCCCN)ccc4OC)ccc3OC)ccc2OC)cc1C(=O)O [Compound 250]	–	> 1000 µg/mL	5.56	5.48	5.89	< 5.00	> 1000 µg/mL	–	–
COc1ccc(NC(=O)[C@@H](CCCNC(=N)N)NC(=O)c2cc(NC(=O)[C@@H](CCCNC(=N)N)NC(=O)c3cc(NC(=O)[C@@H](CCCNC(=N)N)NC(=O)c4cc(NC(C)=O)ccc4OC)ccc3OC)ccc2OCC(=O)O)cc1C(=O)N[C@H](Cc1c[nH]c2ccccc12)C(=O)O [Compound 306]	~1000 µg/mL (≈ 738 µM)	~1000 µg/mL (≈ 738 µM)	< 5.00	6.70 and 6.47	6.70 and 6.44	–	–	0.236 µM	–
COc1ccc(NC(=O)[C@H](CCCNC(=N)N)NC(=O)c2cc(NC(=O)[C@H](CCCNC(=N)N)NC(=O)c3cc(NC(=O)[C@H](CCCNC(=N)N)NC(=O)c4cc(NC(C)=O)ccc4OC)ccc3OC)ccc2OC)cc1C(=O)N[C@@H](Cc1c[nH]c2ccccc12)C(=O)O [Compound 310]	~1000 µg/mL (≈ 763 µM)	–	< 5.00	6.92	6.85	7.01	–	0.242 µM	–
COc1ccc(NC(=O)[C@@H](CCCNC(N)=O)NC(=O)c2cc(NC(=O)[C@@H](CCCNC(=N)N)NC(=O)c3cc(NC(=O)[C@@H](CCCNC(=N)N)NC(=O)c4cc(NC(C)=O)ccc4OC)ccc3OC)ccc2OCC(=O)O)cc1C(=O)N[C@H](Cc1c[nH]c2ccccc12)C(N)=O [Compound 332]	1000 µg/mL (≈ 738 µM)	–	< 5.00	< 5.30	< 5.30	< 5.30	–	> 5 µM	–
COc1ccc(NC(=O)[C@@H](CCCNC(N)=O)NC(=O)c2cc(NC(=O)[C@@H](CCCNC(N)=O)NC(=O)c3cc(NC(=O)[C@@H](CCCNC(=N)N)NC(=O)c4cc(NC(C)=O)ccc4OC)ccc3OC)ccc2OCC(=O)O)cc1C(=O)N[C@H](Cc1c[nH]c2ccccc12)C(N)=O [Compound 333]	1000 µg/mL (≈ 737 µM)	–	< 5.00	< 5.30	< 5.30	< 5.30	–	> 5 µM	–
COc1ccc(NC(=O)[C@H](CCCCN)NC(=O)c2cc(NC(=O)[C@H](CCCCN)NC(=O)c3cc(NC(=O)[C@H](CCCCN)NC(=O)c4cc(NC(=O)[C@H](CCCCN)NC(=O)[C@@H](N)Cc5c[nH]c6ccccc56)ccc4OC)ccc3OC)ccc2OC)cc1C(N)=O [Compound 351] (H-WK[3Abz(6-OMe)]K[3Abz(6-OMe)]K[3Abz(6-OMe)]K-{NH(3-CONH2-4-OMe-phenyl)})	> 1000 µg/mL	–	5.71	6.67	6.94	5.96	–	0.194 µM	–
COc1ccc(NC(=O)[C@H](CCCCN)NC(=O)c2cc(NC(=O)[C@H](CCCCN)NC(=O)c3cc(NC(=O)[C@H](CCCCN)NC(=O)c4cc(NC(=O)[C@H](CCCCN)NC(=O)Cc5ccccc5)ccc4OC)ccc3OC)ccc2OCC(=O)O)cc1C(N)=O [Compound 356]	–	–	5.72	6.90	7.00	6.29	–	0.204 µM	> 1000 µg/mL
COc1ccc(NC(=O)[C@H](CCCCN)NC(=O)c2cc(NC(=O)[C@H](CCCCN)NC(=O)c3cc(NC(=O)[C@H](CCCCN)NC(=O)c4cc(NC(=O)[C@H](CCCCN)NC(=O)[C@@H](N)Cc5ccccc5)ccc4OC)ccc3OC)ccc2OC)cc1C(N)=O [Compound 357] (H-FK[3Abz(6-OMe)]K[3Abz(6-OMe)]K[3Abz(6-OMe)]K-{NH(3-CONH2-4-OMe-phenyl)})	> 1000 µg/mL	–	5.85	6.61	6.93	5.65	–	0.187 µM	–
COc1ccc(NC(=O)[C@H](CCCCN)NC(=O)c2cc(NC(=O)[C@H](CCCCN)NC(=O)c3cc(NC(=O)[C@H](CCCCN)NC(=O)c4cc(NC(=O)[C@H](CCCCN)NC(=O)[C@@H](N)Cc5ccccc5)ccc4OC)ccc3OC)ccc2OCC(=O)O)cc1C(N)=O [Compound 358] (H-FK[3Abz(6-OMe)]K[3Abz(6-OMe)]K[X1]K-{NH(3-CONH2-4-OMe-phenyl)})	> 1000 µg/mL	–	5.71	6.49	6.74	5.80	–	0.314 µM	–
COc1cc(OC)c(C(=O)NCCNC(=O)c2cc(C(=O)NCCN)c(OC)cc2OC)cc1C(=O)O [Compound 387]	–	–	< 5.00	< 5.30	< 5.30	< 5.00	–	> 20 µM	–
COc1cc(OC)c(C(=O)N[C@H]2CC[C@@H](NC(=O)c3cc(C(=O)N[C@H]4CC[C@@H](N=C(N(C)C)N(C)C)CC4)c(OC)cc3OC)CC2)cc1C(N)=O [Compound 388]	–	–	< 5.00	< 5.30	< 5.30	< 5.00	–	> 20 µM	–
COc1cc(OC)c(C(=O)N[C@H]2CC[C@H](NC(=O)c3cc(C(=O)N[C@H]4CC[C@H](N=C(N(C)C)N(C)C)CC4)c(OC)cc3OC)CC2)cc1C(N)=O [Compound 389]	–	–	< 5.00	5.25	5.17	< 5.00	–	> 10 µM	–
COc1cc(OC)c(C(=O)N[C@H]2CC[C@H](NC(=O)c3cc(C(=O)N[C@H]4CC[C@H](NC(=O)c5cc(C(=O)NCCN)c(OC)cc5OC)CC4)c(OCC(N)=O)cc3OC)CC2)cc1C(=O)NCCN [Compound 390]	> 1000 µg/mL	892 µg/mL (≈ 927 µM)	5.68	6.15	6.15	5.89	986 µg/mL (≈ 1020 µM)	–	–
COc1cc(OC)c(C(=O)N[C@H]2CC[C@H](NC(=O)c3cccc(C(=O)N[C@H]4CC[C@H](NC(=O)c5cc(C(=O)NCCN)c(OC)cc5OC)CC4)n3)CC2)cc1C(=O)NCCN [Compound 397]	> 1000 µg/mL	616 µg/mL (≈ 717 µM)	5.94	6.01	6.02	5.58	408 µg/mL (≈ 475 µM)	–	–
COc1cc(OC)c(C(=O)N[C@H]2CC[C@H](NC(=O)c3cccc(C(=O)N[C@H]4CC[C@H](NC(=O)c5cc(C(=O)NCCN)c(OC)cc5OC)CC4)c3)CC2)cc1C(=O)NCCN [Compound 398]	> 1000 µg/mL	1090 µg/mL (≈ 1270 µM)	5.32	5.60	5.69	4.86	> 1000 µg/mL	–	–
COc1cc(OC)c(C(=O)N[C@H]2CC[C@H](NC(=O)c3cncc(C(=O)N[C@H]4CC[C@H](NC(=O)c5cc(C(=O)NCCN)c(OC)cc5OC)CC4)c3)CC2)cc1C(=O)NCCN [Compound 400]	> 1000 µg/mL	1300 µg/mL (≈ 1520 µM)	5.29	5.91	5.93	5.26	> 1000 µg/mL	–	–
COc1cc(OC)c(C(=O)N[C@H]2CC[C@H](NC(=O)c3cc(C(=O)N[C@H]4CC[C@H](NC(=O)c5cc(C(=O)NCCN)c(OC)cc5OC)CC4)ncn3)CC2)cc1C(=O)NCCN [Compound 402]	> 1000 µg/mL	864 µg/mL (≈ 1000 µM)	5.26	5.24	5.50	5.23	753 µg/mL (≈ 875 µM)	–	–
COc1cc(OC)c(C(=O)N[C@H]2CC[C@@H](NC(=O)c3cc(C(=O)N[C@H]4CC[C@@H](NC(=O)c5cc(C(=O)NCCCN)c(OC)cc5OC)CC4)c(OC)cc3OC)CC2)cc1C(=O)NCCCN [Compound 404]	–	> 1000 µg/mL	5.59	6.46	6.35	6.49	1100 µg/mL (≈ 1160 µM)	–	–
